Measurements: PMC5439695 (PLoS ONE, 2017)
Read-outs that look alike come from different tables or passages of the source.

Tests used:
HEK293 cells [1] = details: HEK293 flor
HEK293 cells [2] = test: cells; details: Homo sapiens
HepG2 cells [3] = test: CellTox Green Cytotoxicity Assay (flor) in HepG2, HepG2[flor]; format: cell-based, human; details: HepG2 flor; for EC50: Homo sapiens, given as negative log-scale values;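 as to hepg2 flor emax 0: percent activity versus DMSO-only wells with baseline rescaled to 0%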;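 as to hepg2 flor emax 40: percent activity versus DMSO-only wells with baseline rescaled to 0%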
HEK293 cells [4] = details: HEK293 glo
HepG2 cells [5] = test: cells; details: Homo sapiens
HepG2 cells [6] = details: HepG2 glo
HEK293 cells [7] = test: cells; details: Homo sapiens; remark: listed apart in the source
[8] = test system: HEK293 and HepG2 cell lines; details: any activity in any time point/assay
NRF2 = details: cited from earlier work

SMILES: O=S1(=O)OC(c2ccc(O)cc2)(c2ccc(O)cc2)c2ccccc21 [Phenol red]
- hek293_flor_auc (HEK293 cells [1]): 0
- hek293_flor_time (HEK293 cells [1]): 48
- hek293_flor_bin (HEK293 cells [1]; kinetics bin): inactive
- hek293_flor_emax_0 (HEK293 cells [1]; time point 0): 0
- hek293_flor_pod_0 (HEK293 cells [1]; time point 0): -4.417
- hek293_flor_wauc_0 (HEK293 cells [1]; time point 0): 0
- hek293_flor_emax_8 (HEK293 cells [1]; time point 8): 0
- hek293_flor_pod_8 (HEK293 cells [1]; time point 8): -4.417
- hek293_flor_wauc_8 (HEK293 cells [1]; time point 8): 0
- hek293_flor_emax_16 (HEK293 cells [1]; time point 16): 0
- hek293_flor_pod_16 (HEK293 cells [1]; time point 16): -4.417
- hek293_flor_wauc_16 (HEK293 cells [1]; time point 16): 0
- hek293_flor_emax_24 (HEK293 cells [1]; time point 24): 0
- hek293_flor_pod_24 (HEK293 cells [1]; time point 24): -4.417
- hek293_flor_wauc_24 (HEK293 cells [1]; time point 24): 0
- hek293_flor_emax_32 (HEK293 cells [1]; time point 32): 0
- hek293_flor_pod_32 (HEK293 cells [1]; time point 32): -4.417
- hek293_flor_wauc_32 (HEK293 cells [1]; time point 32): 0
- hek293_flor_emax_40 (HEK293 cells [1]; time point 40): 0
- hek293_flor_pod_40 (HEK293 cells [1]; time point 40): -4.417
- hek293_flor_wauc_40 (HEK293 cells [1]; time point 40): 0
- EC50 (HEK293 cells [2]; HEK293, read-out: hek293_glo_ec50_0): 25.6 µM
- EC50 (HEK293 cells [2]; HEK293, read-out: hek293_glo_ec50_8): 25.6 µM
- EC50 (HEK293 cells [2]; HEK293, read-out: hek293_glo_ec50_16): 25.6 µM
- EC50 (HEK293 cells [2]; HEK293, read-out: hek293_glo_ec50_24): > 38.3 µM
- EC50 (HEK293 cells [2]; HEK293, read-out: hek293_glo_ec50_32): > 38.3 µM
- EC50 (HEK293 cells [2]; HEK293, read-out: hek293_glo_ec50_40): > 38.3 µM
- hepg2_flor_auc (HepG2 cells [3]): 0
- hepg2_flor_time (HepG2 cells [3]): 48
- hepg2_flor_bin (HepG2 cells [3]; kinetics bin): inactive
- hepg2_flor_emax_0 (HepG2 cells [3]; time point 0): 0
- hepg2_flor_pod_0 (HepG2 cells [3]; time point 0): -4.417
- hepg2_flor_wauc_0 (HepG2 cells [3]; time point 0): 0
- hepg2_flor_emax_8 (HepG2 cells [3]; time point 8): 0
- hepg2_flor_pod_8 (HepG2 cells [3]; time point 8): -4.417
- hepg2_flor_wauc_8 (HepG2 cells [3]; time point 8): 0
- hepg2_flor_emax_16 (HepG2 cells [3]; time point 16): 0
- hepg2_flor_pod_16 (HepG2 cells [3]; time point 16): -4.417
- hepg2_flor_wauc_16 (HepG2 cells [3]; time point 16): 0
- hepg2_flor_emax_24 (HepG2 cells [3]; time point 24): 0
- hepg2_flor_pod_24 (HepG2 cells [3]; time point 24): -4.417
- hepg2_flor_wauc_24 (HepG2 cells [3]; time point 24): 0
- hepg2_flor_emax_32 (HepG2 cells [3]; time point 32): 0
- hepg2_flor_pod_32 (HepG2 cells [3]; time point 32): -4.417
- hepg2_flor_wauc_32 (HepG2 cells [3]; time point 32): 0
- hepg2_flor_emax_40 (HepG2 cells [3]; time point 40): 0
- hepg2_flor_pod_40 (HepG2 cells [3]; time point 40): -4.417
- hepg2_flor_wauc_40 (HepG2 cells [3]; time point 40): 0
- EC50 (HepG2 cells [3]; time point 0, read-out: hepg2_flor_ec50_0): > 38.3 µM
- EC50 (HepG2 cells [3]; time point 8, read-out: hepg2_flor_ec50_8): > 38.3 µM
- EC50 (HepG2 cells [3]; time point 16, read-out: hepg2_flor_ec50_16): > 38.3 µM
- EC50 (HepG2 cells [3]; time point 24, read-out: hepg2_flor_ec50_24): > 38.3 µM
- EC50 (HepG2 cells [3]; time point 32, read-out: hepg2_flor_ec50_32): > 38.3 µM
- EC50 (HepG2 cells [3]; time point 40, read-out: hepg2_flor_ec50_40): > 38.3 µM
- hek293_glo_auc (HEK293 cells [4]): 1.203
- hek293_glo_time (HEK293 cells [4]): 40
- hek293_glo_bin (HEK293 cells [4]; kinetics bin): no_cv (no_cv: time > 40)
- hek293_glo_emax_0 (HEK293 cells [4]; time point 0): -33.7
- hek293_glo_pod_0 (HEK293 cells [4]; time point 0): -4.507
- hek293_glo_wauc_0 (HEK293 cells [4]; time point 0): 0.8079
- hek293_glo_emax_8 (HEK293 cells [4]; time point 8): -27.7816
- hek293_glo_pod_8 (HEK293 cells [4]; time point 8): -4.452
- hek293_glo_wauc_8 (HEK293 cells [4]; time point 8): 0.7338
- hek293_glo_emax_16 (HEK293 cells [4]; time point 16): -27.6507
- hek293_glo_pod_16 (HEK293 cells [4]; time point 16): -4.4502
- hek293_glo_wauc_16 (HEK293 cells [4]; time point 16): 0.732
- hek293_glo_emax_24 (HEK293 cells [4]; time point 24): 0
- hek293_glo_pod_24 (HEK293 cells [4]; time point 24): -4.417
- hek293_glo_wauc_24 (HEK293 cells [4]; time point 24): 0
- hek293_glo_emax_32 (HEK293 cells [4]; time point 32): 0
- hek293_glo_pod_32 (HEK293 cells [4]; time point 32): -4.417
- hek293_glo_wauc_32 (HEK293 cells [4]; time point 32): 0
- hek293_glo_emax_40 (HEK293 cells [4]; time point 40): 0
- hek293_glo_pod_40 (HEK293 cells [4]; time point 40): -4.417
- hek293_glo_wauc_40 (HEK293 cells [4]; time point 40): 0
- EC50 (HepG2 cells [5]; HepG2, read-out: hepg2_glo_ec50_0): 25.6 µM
- EC50 (HepG2 cells [5]; HepG2, read-out: hepg2_glo_ec50_8): > 38.3 µM
- EC50 (HepG2 cells [5]; HepG2, read-out: hepg2_glo_ec50_16): > 38.3 µM
- EC50 (HepG2 cells [5]; HepG2, read-out: hepg2_glo_ec50_24): > 38.3 µM
- EC50 (HepG2 cells [5]; HepG2, read-out: hepg2_glo_ec50_32): > 38.3 µM
- EC50 (HepG2 cells [5]; HepG2, read-out: hepg2_glo_ec50_40): > 38.3 µM
- hepg2_glo_auc (HepG2 cells [6]): 0.5829
- hepg2_glo_bin (HepG2 cells [6]; kinetics bin): inconclusive
- hepg2_glo_emax_0 (HepG2 cells [6]; time point 0): -25.8612
- hepg2_glo_pod_0 (HepG2 cells [6]; time point 0): -4.428
- hepg2_glo_wauc_0 (HepG2 cells [6]; time point 0): 0.7068
- hepg2_glo_emax_8 (HepG2 cells [6]; time point 8): 0
- hepg2_glo_pod_8 (HepG2 cells [6]; time point 8): -4.417
- hepg2_glo_wauc_8 (HepG2 cells [6]; time point 8): 0
- hepg2_glo_emax_16 (HepG2 cells [6]; time point 16): 0
- hepg2_glo_pod_16 (HepG2 cells [6]; time point 16): -4.417
- hepg2_glo_wauc_16 (HepG2 cells [6]; time point 16): 0
- hepg2_glo_emax_24 (HepG2 cells [6]; time point 24): 0
- hepg2_glo_pod_24 (HepG2 cells [6]; time point 24): -4.417
- hepg2_glo_wauc_24 (HepG2 cells [6]; time point 24): 0
- hepg2_glo_emax_32 (HepG2 cells [6]; time point 32): 0
- hepg2_glo_pod_32 (HepG2 cells [6]; time point 32): -4.417
- hepg2_glo_wauc_32 (HepG2 cells [6]; time point 32): 0
- hepg2_glo_emax_40 (HepG2 cells [6]; time point 40): 0
- hepg2_glo_pod_40 (HepG2 cells [6]; time point 40): -4.417
- hepg2_glo_wauc_40 (HepG2 cells [6]; time point 40): 0
- EC50 (HEK293 cells [7]; HEK293, read-out: hek293_flor_ec50_0): > 38.3 µM
- EC50 (HEK293 cells [7]; HEK293, read-out: hek293_flor_ec50_8): > 38.3 µM
- EC50 (HEK293 cells [7]; HEK293, read-out: hek293_flor_ec50_16): > 38.3 µM
- EC50 (HEK293 cells [7]; HEK293, read-out: hek293_flor_ec50_24): > 38.3 µM
- EC50 (HEK293 cells [7]; HEK293, read-out: hek293_flor_ec50_32): > 38.3 µM
- EC50 (HEK293 cells [7]; HEK293, read-out: hek293_flor_ec50_40): > 38.3 µM
- information [8]: 1

SMILES: O=C(OCCN1CCOCC1)c1cccnc1Nc1cccc(C(F)(F)F)c1 [Morniflumate, reference compound]
- increase NRF2 TF activity, POD potency (NRF2): 4.54 log10(M)*-1
